Patent US12083124B2 (Incyte Corporation, priority 2019, dated 2024)
Read-outs that look alike come from different tables or passages of the source.

Legend:
[1] = molecular target: wild-type un-phosphorylated FGFR1 (Homo sapiens, UniProt P11362); test: FGFR Enzymatic Assay (FRET peptide phosphorylation), FGFR1; conditions: pre-incubated for 4 hours
[2] = molecular target: wild-type un-phosphorylated FGFR3 (Homo sapiens, UniProt P22607); test: FGFR Enzymatic Assay (FRET peptide phosphorylation), FGFR3
[3] = molecular target: wild-type un-phosphorylated FGFR2 (Homo sapiens, UniProt P21802); test: FGFR Enzymatic Assay (FRET peptide phosphorylation), FGFR2
[4] = molecular target: wild-type un-phosphorylated FGFR4 (Homo sapiens, UniProt P22455); test: FGFR Enzymatic Assay (FRET peptide phosphorylation), FGFR4
[5] = FGFR1, wild-type un-phosphorylated FGFR1
[6] = read-out: FGFR2, wild-type un-phosphorylated FGFR2, pre-incubated for 4 hours
[7] = read-out: FGFR1, wild-type un-phosphorylated FGFR1
[8] = read-out: FGFR4, wild-type un-phosphorylated FGFR4, pre-incubated for 4 hours

Sequence of wild-type un-phosphorylated FGFR3 (P22607 23-806): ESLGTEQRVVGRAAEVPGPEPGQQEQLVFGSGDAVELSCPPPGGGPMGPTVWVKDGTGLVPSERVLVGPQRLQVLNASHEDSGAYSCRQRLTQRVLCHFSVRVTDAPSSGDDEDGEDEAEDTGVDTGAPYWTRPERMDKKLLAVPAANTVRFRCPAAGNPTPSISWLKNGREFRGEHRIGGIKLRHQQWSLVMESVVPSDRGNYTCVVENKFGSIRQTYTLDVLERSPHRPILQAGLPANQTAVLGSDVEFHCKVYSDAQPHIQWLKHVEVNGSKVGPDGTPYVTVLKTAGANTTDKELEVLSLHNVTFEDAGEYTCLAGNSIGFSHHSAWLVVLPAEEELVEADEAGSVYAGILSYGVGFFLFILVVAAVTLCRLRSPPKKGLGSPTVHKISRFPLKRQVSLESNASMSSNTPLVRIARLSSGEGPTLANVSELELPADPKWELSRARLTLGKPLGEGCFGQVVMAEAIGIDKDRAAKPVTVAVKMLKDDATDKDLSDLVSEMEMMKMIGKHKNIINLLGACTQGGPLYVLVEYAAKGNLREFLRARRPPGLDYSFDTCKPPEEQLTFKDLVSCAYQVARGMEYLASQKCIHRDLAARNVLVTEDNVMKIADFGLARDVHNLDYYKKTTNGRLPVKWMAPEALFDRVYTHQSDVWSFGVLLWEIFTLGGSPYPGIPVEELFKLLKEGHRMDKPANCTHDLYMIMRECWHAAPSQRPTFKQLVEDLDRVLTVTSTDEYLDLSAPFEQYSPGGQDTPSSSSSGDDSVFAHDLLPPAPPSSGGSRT
Sequence of wild-type un-phosphorylated FGFR2 (P21802 22-821): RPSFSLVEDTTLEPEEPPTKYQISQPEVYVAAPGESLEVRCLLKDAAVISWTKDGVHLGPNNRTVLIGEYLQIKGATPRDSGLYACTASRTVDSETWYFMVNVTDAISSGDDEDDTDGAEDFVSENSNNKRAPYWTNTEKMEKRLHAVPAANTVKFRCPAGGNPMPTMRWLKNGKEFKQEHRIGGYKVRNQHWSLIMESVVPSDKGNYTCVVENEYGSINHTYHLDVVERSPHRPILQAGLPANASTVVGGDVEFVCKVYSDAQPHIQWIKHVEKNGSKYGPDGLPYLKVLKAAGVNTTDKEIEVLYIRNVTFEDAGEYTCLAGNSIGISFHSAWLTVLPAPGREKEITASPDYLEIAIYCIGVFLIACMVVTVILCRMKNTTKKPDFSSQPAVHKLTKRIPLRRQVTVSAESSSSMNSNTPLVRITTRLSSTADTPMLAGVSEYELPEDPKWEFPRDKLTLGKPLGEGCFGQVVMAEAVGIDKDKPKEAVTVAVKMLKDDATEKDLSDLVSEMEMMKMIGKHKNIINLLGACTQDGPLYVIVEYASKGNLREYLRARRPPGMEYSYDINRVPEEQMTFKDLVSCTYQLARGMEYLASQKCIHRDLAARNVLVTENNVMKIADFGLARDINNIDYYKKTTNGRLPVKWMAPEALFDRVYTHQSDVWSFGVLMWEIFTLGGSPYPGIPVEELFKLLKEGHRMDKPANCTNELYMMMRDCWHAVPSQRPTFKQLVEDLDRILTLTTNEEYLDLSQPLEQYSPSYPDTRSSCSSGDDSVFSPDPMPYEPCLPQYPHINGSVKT
Sequence of wild-type un-phosphorylated FGFR1 (P11362 22-822): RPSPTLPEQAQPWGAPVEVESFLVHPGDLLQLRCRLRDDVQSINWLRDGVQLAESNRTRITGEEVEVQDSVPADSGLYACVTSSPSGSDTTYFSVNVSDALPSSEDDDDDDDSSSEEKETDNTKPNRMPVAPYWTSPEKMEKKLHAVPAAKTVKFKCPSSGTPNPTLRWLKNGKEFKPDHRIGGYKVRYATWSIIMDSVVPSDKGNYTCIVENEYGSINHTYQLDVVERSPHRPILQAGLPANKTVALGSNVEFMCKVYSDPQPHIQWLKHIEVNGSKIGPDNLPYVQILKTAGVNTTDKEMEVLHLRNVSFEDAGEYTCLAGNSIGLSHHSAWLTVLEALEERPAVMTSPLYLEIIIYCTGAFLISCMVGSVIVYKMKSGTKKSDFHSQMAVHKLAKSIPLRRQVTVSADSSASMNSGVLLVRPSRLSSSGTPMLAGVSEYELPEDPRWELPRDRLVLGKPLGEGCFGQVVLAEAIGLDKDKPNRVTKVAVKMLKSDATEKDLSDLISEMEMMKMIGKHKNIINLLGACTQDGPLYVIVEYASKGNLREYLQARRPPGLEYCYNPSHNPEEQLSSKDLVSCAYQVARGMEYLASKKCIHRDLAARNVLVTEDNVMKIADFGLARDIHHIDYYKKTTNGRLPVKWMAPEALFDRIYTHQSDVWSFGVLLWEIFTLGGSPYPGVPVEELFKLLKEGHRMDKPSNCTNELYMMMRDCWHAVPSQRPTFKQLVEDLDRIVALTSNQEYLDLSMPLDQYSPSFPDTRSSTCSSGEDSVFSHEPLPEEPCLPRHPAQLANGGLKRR
Sequence of wild-type un-phosphorylated FGFR4 (P22455 22-802): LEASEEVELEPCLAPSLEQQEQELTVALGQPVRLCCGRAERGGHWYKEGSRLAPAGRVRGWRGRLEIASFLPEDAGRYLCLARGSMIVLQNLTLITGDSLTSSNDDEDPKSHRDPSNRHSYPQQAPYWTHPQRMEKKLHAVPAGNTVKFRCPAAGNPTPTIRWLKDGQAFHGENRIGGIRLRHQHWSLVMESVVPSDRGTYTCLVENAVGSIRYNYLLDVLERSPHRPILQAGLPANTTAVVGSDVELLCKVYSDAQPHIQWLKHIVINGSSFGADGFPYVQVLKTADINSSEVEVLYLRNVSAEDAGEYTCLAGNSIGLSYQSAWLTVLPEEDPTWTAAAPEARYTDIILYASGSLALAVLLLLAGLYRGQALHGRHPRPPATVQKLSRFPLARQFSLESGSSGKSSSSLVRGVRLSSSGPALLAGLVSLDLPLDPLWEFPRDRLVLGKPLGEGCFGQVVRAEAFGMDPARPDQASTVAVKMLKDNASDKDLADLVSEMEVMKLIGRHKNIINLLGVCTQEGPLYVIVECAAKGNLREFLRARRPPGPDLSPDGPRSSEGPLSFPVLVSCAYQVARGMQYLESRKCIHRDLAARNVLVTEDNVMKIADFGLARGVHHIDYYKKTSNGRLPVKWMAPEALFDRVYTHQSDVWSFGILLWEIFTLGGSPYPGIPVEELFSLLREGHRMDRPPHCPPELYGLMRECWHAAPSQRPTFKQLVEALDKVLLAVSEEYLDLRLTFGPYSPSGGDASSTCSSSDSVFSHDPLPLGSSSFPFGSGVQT

In the case of COc1cc2[nH]nc(-c3cnn(C4CN(C(=O)N(C)C)C4)c3)c2nc1-c1cccc(C)c1F [Example 52, 3-(4-(5-(2-Fluoro-3-methylphenyl)-6-methoxy-1H-pyrazolo[4,3-b]pyridin-3-yl)-1H-pyrazol-1-yl)-N,N-dimethylazetidine-1-carboxamide], the IC50 [1, 5] is reported as over 100 nM, the IC50 [2] is reported as under 6 nM and the IC50 [3, 6] is reported as 6 to 40 nM. For the same compound, the IC50 [4] was over 100 nM.

COCCOc1ccc(-c2n[nH]c3cc(OC)c(-c4cccc5c4CC(O)C5)nc23)cn1 (stereo not shown) [Example 95, 4-(6-Methoxy-3-(6-(2-methoxyethoxy)pyridin-3-yl)-1H-pyrazolo[4,3-b]pyridin-5-yl)-2,3-dihydro-1H-inden-2-ol] showed an IC50 [1, 5] of 40 to 100 nM, an IC50 [2] of under 6 nM and an IC50 [3, 6] of 6 to 40 nM. It also gave an IC50 [4] of over 100 nM.

For COc1cc2[nH]nc(-c3ccc(C4CCN(C(C)=O)C4)nc3)c2nc1-c1cccc2c1CCC2 (single isomer, unassigned) [Example 104, 1-(3-(5-(5-(2,3-Dihydro-1H-inden-4-yl)-6-methoxy-1H-pyrazolo[4,3-b]pyridin-3-yl)pyridin-2-yl)pyrrolidin-1-yl)ethan-1-one], the IC50 [1, 7] was 6 to 40 nM, the IC50 ([2]; read-out: FGFR3, wild-type un-phosphorylated FGFR3, pre-incubated for 4 hours) was under 6 nM and the IC50 [3, 6] was under 6 nM. The IC50 [4, 8] was 6 to 40 nM.

In the case of COc1cc2[nH]nc(-c3ccc(C4CCN(C(C)C(N)=O)C4)nc3)c2nc1-c1cccc2c1CCC2 (single isomer, unassigned) [Example 107, 2-(3-(5-(5-(2,3-Dihydro-1H-inden-4-yl)-6-methoxy-1H-pyrazolo[4,3-b]pyridin-3-yl)pyridin-2-yl)pyrrolidin-1-yl)propanamide], the IC50 [1, 7] is reported as 6 to 40 nM, the IC50 [2] is reported as under 6 nM and the IC50 [3] is reported as under 6 nM. It also gave an IC50 [4, 8] of 6 to 40 nM.

COc1cc2[nH]nc(-c3cnn([C@@H]4CCN(C(=O)[C@@H]5COCCN5C)C4)c3)c2nc1-c1cccc2c1CCC2 [Example 137, ((R)-3-(4-(5-(2,3-Dihydro-1H-inden-4-yl)-6-methoxy-1H-pyrazolo[4,3-b]pyridin-3-yl)-1H-pyrazol-1-yl)pyrrolidin-1-yl)((S)-4-methylmorpholin-3-yl)methanone] gave an IC50 [1, 7] of 6 to 40 nM, an IC50 [2] of under 6 nM and an IC50 [3] of under 6 nM. For the same compound, the IC50 [4] was 40 to 100 nM.

COc1cc2[nH]nc(-c3cnn(C)c3)c2nc1-c1cccc2c1CC(F)C2 (stereo not shown) [Example 84, 5-(2-Fluoro-2,3-dihydro-1H-inden-4-yl)-6-methoxy-3-(1-methyl-1H-pyrazol-4-yl)-1H-pyrazolo[4,3-b]pyridine] gave an IC50 [1, 5] of 40 to 100 nM, an IC50 [2] of under 6 nM and an IC50 [3] of under 6 nM. For the same compound, the IC50 [4] was over 100 nM.

With COc1cc2[nH]nc(-c3cnn(C4CN(C(=O)CN5CCC(O)CC5)C4)c3)c2nc1-c1cccc2c1CCC2 [Example 121, 1-(3-(4-(5-(2,3-Dihydro-1H-inden-4-yl)-6-methoxy-1H-pyrazolo[4,3-b]pyridin-3-yl)-1H-pyrazol-1-yl)azetidin-1-yl)-2-(4-hydroxypiperidin-1-yl)ethan-1-one] the IC50 [1, 7] was 6 to 40 nM, the IC50 [2] was under 6 nM and the IC50 [3] was under 6 nM. It also gave an IC50 [4] of 40 to 100 nM.

COc1cc2[nH]nc(-c3cnn(C4CN(C(=O)[C@H](C)N(C)C)C4)c3)c2nc1-c1cccc2c1CCC2 [Example 118, (S)-1-(3-(4-(5-(2,3-Dihydro-1H-inden-4-yl)-6-methoxy-1H-pyrazolo[4,3-b]pyridin-3-yl)-1H-pyrazol-1-yl)azetidin-1-yl)-2-(dimethylamino)propan-1-one] gave an IC50 [1, 7] of 6 to 40 nM, an IC50 [2] of under 6 nM and an IC50 [3] of under 6 nM. The IC50 [4] was 40 to 100 nM.

Compound COc1cc2[nH]nc(-c3ccc(C4CCN(C(=O)[C@H](C)O)CC4)nc3)c2nc1-c1cccc(C)c1C [Example 77, (S)-1-(4-(5-(5-(2,3-Dimethylphenyl)-6-methoxy-1H-pyrazolo[4,3-b]pyridin-3-yl)pyridin-2-yl)piperidin-1-yl)-2-hydroxypropan-1-one] has an IC50 [1, 5] of over 100 nM, an IC50 [2] of under 6 nM and an IC50 [3] of under 6 nM. It also gave an IC50 [4] of over 100 nM.

COc1cc2[nH]nc(-c3ccc(C4CN(C(=O)C5CCCO5)C4)nc3)c2nc1-c1cccc2c1CCC2 (stereo not shown) [Example 172, (3-(5-(5-(2,3-Dihydro-1H-inden-4-yl)-6-methoxy-1H-pyrazolo[4,3-b]pyridin-3-yl)pyridin-2-yl)azetidin-1-yl)(tetrahydrofuran-2-yl)methanone] showed an IC50 [1, 5] of 40 to 100 nM, an IC50 [2] of under 6 nM and an IC50 [3] of under 6 nM. It also gave an IC50 [4] of 40 to 100 nM.

Compound COc1cc2[nH]nc(-c3ccc(C45CC4CN(CCO)C5)cc3)c2nc1-c1cccc2c1CCC2 (stereo not shown) [Example 158, 2-(1-(4-(5-(2,3-Dihydro-1H-inden-4-yl)-6-methoxy-1H-pyrazolo[4,3-b]pyridin-3-yl)phenyl)-3-azabicyclo[3.1.0]hexan-3-yl)ethan-1-ol] has an IC50 [1, 7] of 6 to 40 nM, an IC50 [2] of under 6 nM and an IC50 [3] of under 6 nM. For the same compound, the IC50 [4] was 40 to 100 nM.

With COCCN1CCN(c2ccc(-c3n[nH]c4cc(OC)c(-c5cccc(CC#N)c5C)nc34)cn2)CC1 [Example 166, 2-(3-(6-Methoxy-3-(6-(4-(2-methoxyethyl)piperazin-1-yl)pyridin-3-yl)-1H-pyrazolo[4,3-b]pyridin-5-yl)-2-methylphenyl)acetonitrile] the IC50 [1, 5] was 40 to 100 nM, the IC50 [2] was under 6 nM and the IC50 [3] was under 6 nM. It also gave an IC50 [4] of 40 to 100 nM.

For COCC(=O)N1CC(n2cc(-c3n[nH]c4cc(OC)c(-c5cccc6c5CCC6)nc34)cn2)C1 [Example 147, 1-(3-(4-(5-(2,3-Dihydro-1H-inden-4-yl)-6-methoxy-1H-pyrazolo[4,3-b]pyridin-3-yl)-1H-pyrazol-1-yl)azetidin-1-yl)-2-methoxyethan-1-one], the IC50 [1, 7] was 6 to 40 nM, the IC50 [2] was under 6 nM and the IC50 [3] was under 6 nM. The IC50 [4] was 40 to 100 nM.

COc1cc2[nH]nc(-c3cnn(C4CN(C(=O)C5CC5)C4)c3)c2nc1-c1cccc2c1CCC2 [Example 25, Cyclopropyl(3-(4-(5-(2,3-dihydro-1H-inden-4-yl)-6-methoxy-1H-pyrazolo[4,3-b]pyridin-3-yl)-1H-pyrazol-1-yl)azetidin-1-yl)methanone] showed an IC50 [1, 7] of 6 to 40 nM, an IC50 [2] of under 6 nM and an IC50 [3] of under 6 nM. It also gave an IC50 [4] of 40 to 100 nM.

COc1cc2[nH]nc(-c3ccc(N4CCN5C[C@H](O)C[C@H]5C4)nc3)c2nc1-c1cccc(C)c1C [Example 87, (7R,8aS)-2-(5-(5-(2,3-Dimethylphenyl)-6-methoxy-1H-pyrazolo[4,3-b]pyridin-3-yl)pyridin-2-yl)octahydropyrrolo[1,2-a]pyrazin-7-ol] gave an IC50 [1, 5] of 40 to 100 nM, an IC50 [2] of under 6 nM and an IC50 [3] of under 6 nM. It also gave an IC50 [4] of 40 to 100 nM.

For COc1cc2[nH]nc(-c3ccc(N4CCN5C[C@H](O)C[C@H]5C4)nc3)c2nc1-c1cccc2c1CCC2 [Example 170, (7R,8aS)-2-(5-(5-(2,3-Dihydro-1H-inden-4-yl)-6-methoxy-1H-pyrazolo[4,3-b]pyridin-3-yl)pyridin-2-yl)octahydropyrrolo[1,2-a]pyrazin-7-ol], the IC50 [1, 7] was 6 to 40 nM, the IC50 [2] was under 6 nM and the IC50 [3] was under 6 nM. It also gave an IC50 [4, 8] of 6 to 40 nM.

With COc1cc2[nH]nc(-c3ccc(C4CC(N(C)C(=O)CO)C4)nc3)c2nc1-c1cccc2c1CCC2 (stereo not shown) [Example 178, N-(3-(5-(5-(2,3-Dihydro-1H-inden-4-yl)-6-methoxy-1H-pyrazolo[4,3-b]pyridin-3-yl)pyridin-2-yl)cyclobutyl)-2-hydroxy-N-methylacetamide] the IC50 [1, 7] was 6 to 40 nM, the IC50 [2] was under 6 nM and the IC50 [3] was under 6 nM. The IC50 [4, 8] was 6 to 40 nM.

COc1cc2[nH]nc(-c3cnn(C4CN(C(=O)CO)C4)c3)c2nc1-c1cccc2c1CCC2 [Example 116, 1-(3-(4-(5-(2,3-Dihydro-1H-inden-4-yl)-6-methoxy-1H-pyrazolo[4,3-b]pyridin-3-yl)-1H-pyrazol-1-yl)azetidin-1-yl)-2-hydroxyethan-1-one] was tested, and the IC50 [1, 7] was 6 to 40 nM, the IC50 [2] was under 6 nM and the IC50 [3] was under 6 nM. It also gave an IC50 [4] of 40 to 100 nM.

COc1cc2[nH]nc(-c3cnn(C4CN(C(=O)[C@H]5C[C@@H](OC)C5)C4)c3)c2nc1-c1cccc2c1CCC2 [Example 153, (3-(4-(5-(2,3-Dihydro-1H-inden-4-yl)-6-methoxy-1H-pyrazolo[4,3-b]pyridin-3-yl)-1H-pyrazol-1-yl)azetidin-1-yl)((1s,3s)-3-methoxycyclobutyl)methanone] showed an IC50 [1, 7] of 6 to 40 nM, an IC50 [2] of under 6 nM and an IC50 [3] of under 6 nM. It also gave an IC50 [4] of 40 to 100 nM.

Compound COc1cc2[nH]nc(-c3ccc(C4CCN(C5CCN(C)C5=O)C4)nc3)c2nc1-c1cccc2c1CCC2 (single isomer, unassigned) [Example 106, 3-(5-(5-(2,3-Dihydro-1H-inden-4-yl)-6-methoxy-1H-pyrazolo[4,3-b]pyridin-3-yl)pyridin-2-yl)-1′-methyl-[1,3′-bipyrrolidin]-2′-one] has an IC50 [1, 7] of 6 to 40 nM, an IC50 [2] of under 6 nM and an IC50 [3] of under 6 nM. The IC50 [4, 8] was 6 to 40 nM.

Compound COc1cc2[nH]nc(-c3cnn(Cc4ccccn4)c3)c2nc1-c1cccc(C)c1C [Example 66, 5-(2,3-Dimethylphenyl)-6-methoxy-3-(1-(pyridin-2-ylmethyl)-1H-pyrazol-4-yl)-1H-pyrazolo[4,3-b]pyridine] has an IC50 [1, 5] of over 100 nM, an IC50 [2] of under 6 nM and an IC50 [3] of under 6 nM. It also gave an IC50 [4] of over 100 nM.

For COc1cc2[nH]nc(-c3ccc(C4CCN(C(C)=O)C4)nc3)c2nc1-c1cccc2c1CCC2C#N (single isomer, unassigned) [Example 183, 4-(3-(6-(1-Acetylpyrrolidin-3-yl)pyridin-3-yl)-6-methoxy-1H-pyrazolo[4,3-b]pyridin-5-yl)-2,3-dihydro-1H-indene-1-carbonitrile], the IC50 [1, 7] was 6 to 40 nM, the IC50 [2] was under 6 nM and the IC50 [3] was under 6 nM. The IC50 [4, 8] was 6 to 40 nM.
